Data on 26 compounds can be found in US5451522A, “Genes encoding and method of expressing an enzyme: phthalyl amidase” (priority 1994, dated 1995).

One experiment concerns Xanthobacter agilis. Briefly: Induction of phthalyl amidase in Xanthobacter agilis cultures. It counts as cell-based. The note with it: for Total units/mg protein: cell-free lysate, chromogenic substrate II; for Cell weight: 48 hours growth in Bac MI medium; for effect on wet weight cell mass (in words): Table 1 summary. As to the method: Three compounds at different concentrations were added to aerated cultures of the organism growing at 30° C. in Bac MI medium. The compounds tested were phthalate (PAA), phthalyl glycine (PAG), and PMBL. Cells of Xanthobacter agilis were grown with aeration for 24 hours. This vegetative culture was used to inoculate Bac MI medium (50 ml) containing different concentrations of the compounds to be tested. After 48 hours growth under standard conditions, cells were harvested by centrifugation and wet weight of the cells was determined. Crude cell extracts were prepared by lysozyme treatment of the cells as in Example 1. Suspensions were briefly sonicated to break up the viscous suspension. A cell-free supernatant was obtained by centrifugation of the suspension at 14,000 rpm for 15 minutes.
Enzyme activity in cell-free lysates was determined by monitoring conversion of the chromogenic substrate 4-(2'-carboxy-N-benzoyl)amino-2-carboxy-nitrobenzene (II) to 2-nitro-5-amino benzoic acid and phthalic acid, a reaction catalyzed by phthalyl amidase as shown below: [drawing 4]
The assay reaction mixture (1 ml) consisted of 0.3 μmol of the chromogenic substrate (II) and 0.001-0.5 μg of enzyme preparation in 50 mM potassium phosphate buffer, pH 8.0 (buffer A). The enzymatic reaction was conducted at 30° C. for 10 minutes and the appearance of product was monitored at 380 nm (or 430 nm). The amount of substrate hydrolyzed was calculated from a standard curve of the amine product.

Experiment [1] addresses T1, phthalyl amidase (Xanthobacter agilis, UniProt P0C2Y0).
T1 construct: 42-aa signal peptide removed
Briefly: Substrate specificity: chemical structure requirements for enzyme activity. It counts as biochemical. The note with it: for Relative Activity: 2.5 μmol compound, 0.3 units enzyme; for suitability as substrate (in words): Tables 10 and 11. As for the experimental part: The activity of phthalyl amidase against 25 compounds was determined. The compounds were divided into beta-lactams (Table 9), phthalyl amides (Table 10), and aromatic ring substituted amides (Table 11). Each reaction mixture (1 ml total volume) contained 2.5 μmol of compound and 0.3 units of enzyme (based on the chromogenic substrate) of the preparative scale purified enzyme, in 50 mM phosphate buffer, pH 8.0. The reactions were conducted at 30° C. Samples of the reaction mixture were taken at various times, and methanol (equal volume) was added to stop the reaction. The samples were examined by HPLC to determine the extent of substrate hydrolysis. The amount of compound hydrolyzed was calculated from a standard curve of the test compound. All substrates were stable in buffer at 30° C. and pH 8.0 in the absence of enzyme for 24 hours.

Experiment [2] deals with T1, phthalyl amidase. Briefly: Chiral and additional substrate selectivity of phthalyl amidase. The format is biochemical. The note with it: Table 13; for Relative Activity: III = 100, 0.009 mg (0.6 units) enzyme, 2.5 μmol substrate, buffer A, 30° C. As to the method:
Several additional substrates were tested in a total volume of 1 ml. […] Reactions were stopped by the addition of methanol, and phthalic acid formation was monitored by HPLC.

Experiment [3] has as its target T1, phthalyl amidase. Briefly: Influence of effectors and organic solvents on enzyme activity. It counts as biochemical. Particulars: for remaining activity at 1000 µM: read-out: % of Control Activity; for remaining activity at 1 % / remaining activity at 5 % / remaining activity at 10 %: 20 min, read-out: % Residual enzyme activity; for remaining activity at 1 %: solvent 1.0%; for remaining activity at 5 %: solvent 5.0%; for remaining activity at 10 %: solvent 10.0%. As to the method: A typical reaction mixture consisted of 1 ml total volume and contained 0.1 mM III, 0.1 μM phthalyl amidase in 50 mM potassium phosphate buffer (pH 5.5-9.0) at 32° C. for 20 minutes. The reactions were stopped by the addition of 1 ml methanol. After removal of precipitate by centrifugation, an aliquot of the supernatant fraction (typically 30 μ) was monitored for the beta-lactam nucleus and phthalic acid by HPLC using a Zorbax C8 column (0.46×15 cm; MacMod Analytical Inc., Chadds Ford, Pa.). The two reaction products were eluted by a mobile phase constructed as continuous mixed gradients from (a) 1% ACN (acetonitrile)/0.2% TFA (trifluoroacetic acid) and (b) 80% ACN/0.2% TFA as follows: 1) 0% (b), 3 min; 2) 0-50% (b), 0.5 min; 3) 50-100% (b), 3 min; 4) 100% (b), 2.5 min; 5) 100-0% (b), 0.1 min; and 6) 0% (b), 5 min.
The effect of various agents on the enzymatic activity of phthalyl amidase was determined using standard conditions (see Example 5). All agents were tested at 1 mM final concentration unless otherwise indicated.

The mark [4] stands for this setting: Table 9 beta-lactams, III = 100, 50 mM phosphate pH 8.0, 30° C.
The mark [5] stands for this setting: Table 11 aromatic ring substituted amides, XVII = 100.0, pH 8.0, 30° C.
Setting [6] is: agent at 1 mM final concentration.

The structures appear in SMILES notation. Like-named read-outs stand apart in the source and are kept apart here.

T1 sequence (P0C2Y0 2-453): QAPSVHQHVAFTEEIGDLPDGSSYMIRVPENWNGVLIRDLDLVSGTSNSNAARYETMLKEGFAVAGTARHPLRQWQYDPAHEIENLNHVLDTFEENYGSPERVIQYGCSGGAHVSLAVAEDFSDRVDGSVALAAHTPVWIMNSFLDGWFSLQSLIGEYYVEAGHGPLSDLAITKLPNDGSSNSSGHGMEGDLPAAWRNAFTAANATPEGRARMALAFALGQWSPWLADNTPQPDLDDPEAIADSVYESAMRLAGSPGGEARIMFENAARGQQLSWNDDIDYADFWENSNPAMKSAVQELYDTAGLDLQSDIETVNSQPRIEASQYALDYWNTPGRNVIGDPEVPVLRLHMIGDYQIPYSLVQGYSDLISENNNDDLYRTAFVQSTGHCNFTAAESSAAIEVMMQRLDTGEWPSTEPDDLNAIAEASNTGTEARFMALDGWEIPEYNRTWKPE

As for `O=C(O)c1ccccc1C(=O)O` [PAA, phthalate], the Units/g cells was determined as 3.9 Units/g cells in the experiment with Xanthobacter agilis (inducer addition 1 mg/ml), 9.3 Units/g cells in the experiment on Xanthobacter agilis (inducer addition 2 mg/ml), 5.5 Units/g cells in the experiment on Xanthobacter agilis (inducer addition 5 mg/ml) and 19.8 Units/g cells in the experiment with Xanthobacter agilis (inducer addition 10 mg/ml). The Total units/mg protein in the experiment on Xanthobacter agilis (inducer addition 1 mg/ml) was determined as 1.4 µmol/min/mg; in the experiment with Xanthobacter agilis (inducer addition 2 mg/ml) it was 4.3 µmol/min/mg; with Xanthobacter agilis (inducer addition 5 mg/ml) it was 3.7 µmol/min/mg; in the experiment on Xanthobacter agilis (inducer addition 10 mg/ml) it was 12.0 µmol/min/mg. Further, the Cell weight with Xanthobacter agilis (inducer addition 5 mg/ml) is given as 0.7 g/50 ml; in the experiment on Xanthobacter agilis (inducer addition 10 mg/ml) it was 0.6 g/50 ml.

At phthalyl amidase [1] (setting [4]), `O=C(O)CN1C(=O)C(NC(=O)Cc2ccccc2)C1CCc1ccco1` (centres unmarked) [V] had a Relative Activity of 0.

Regarding `O=C(O)c1ccccc1C(=O)Nc1ccccc1` [Compound XXXI], at phthalyl amidase [2], the “substrate selectivity (in words)” value was “twice” and the “Relative Activity” value was determined as 200.

In the case of `O=C(O)c1ccccc1C(=O)N[C@H](C(=O)O)c1ccccc1` [Compound XXX], at phthalyl amidase [2], the “substrate selectivity (in words)” value is reported as “poor substrates” and the “Relative Activity” value is listed as 1.3. In addition, on phthalyl amidase [2] (listed as L isomer), the “substrate selectivity (in words)” value is reported as “extremely poor substrate”.

Consider `CCCCCCC(C(=O)O)n1cnc(NC(=O)c2cccc(O)c2C(=O)O)c1` (centres unmarked) [XXI], for which the “Relative Activity” value on phthalyl amidase [1] (setting [5]) is on record as 1.3. Besides, the “suitability as substrate (in words)” value at phthalyl amidase [1] is on record as “acceptable”.

Compound `O=C(O)CN1C(=O)C(NC(=O)c2ccccc2)C1CCc1ccco1` (centres unmarked) [VI] returned a Relative Activity on phthalyl amidase [1] (setting [4]) of 0.

For the compound `O=C(Nc1ccccc1)c1ccccc1S(=O)(=O)O` [XXXII], on phthalyl amidase [2], the “substrate selectivity (in words)” value was “poor substrates” and the “Relative Activity” value turned out to be 0.0.

As for `CCCCCCC(C(=O)O)n1cnc(NC(=O)c2ccccc2C(=O)O)c1` (centres unmarked) [XIII], the “suitability as substrate (in words)” value on phthalyl amidase [1] is “most active compound found”.

Take `CCCCCCC(C(=O)O)n1cnc(NC(=O)c2ccccc2C(=O)O)c1` (centres unmarked) [XVII]: the “Relative Activity” value at phthalyl amidase [1] (setting [5]) was 100.0.

Consider `CCCCCCC(C(=O)O)n1cnc(NC(=O)c2ncccc2C(=O)O)c1` (centres unmarked) [Compound XX], for which, on phthalyl amidase [1], the “suitability as substrate (in words)” value is “acceptable”.

As to `CCCCCCC(C(=O)O)n1cnc(NC(=O)c2ccccc2)c1` (centres unmarked) [XXVIII], the “Relative Activity” value on phthalyl amidase [1] (setting [5]) is listed as 0.

Turning to `CCCCCCC(C(=O)O)n1cnc(NC(=O)c2ccccc2O)c1` (centres unmarked) [XXV], the “Relative Activity” value on phthalyl amidase [1] (setting [5]) is reported as 0.

`CC(C)NC(=O)c1ccccc1C(=O)O` [XII]: on phthalyl amidase [1] (Table 10 phthalyl amides, III = 100.0, 50 mM phosphate pH 8.0, 30° C.), the “Relative Activity” value turned out to be 9.7.

In the case of `CCCCCCC(C(=O)O)n1cnc(NC(=O)c2cc(O)cc(O)c2)c1` (centres unmarked) [XXVII], the “Relative Activity” value at phthalyl amidase [1] (setting [5]) was determined as 0.

Take `O=C(O)CN1C(=O)C(NC(=O)COc2ccccc2)C1CCc1ccco1` (centres unmarked) [IV]: the Relative Activity on phthalyl amidase [1] (setting [4]) is given as 0.

On to `CCCCCCC(C(=O)O)n1cnc(NC(=O)c2ccc(C(=O)O)cc2)c1` (centres unmarked) [XXIII], for which the “Relative Activity” value at phthalyl amidase [1] (setting [5]) was determined as 0. The “suitability as substrate (in words)” value on phthalyl amidase [1] was “completely eliminates hydrolytic activity”.

As for `CCN1C(=O)C=CC1=O` [NEM, Nethylmaleimide], the remaining activity at 1000 µM on phthalyl amidase [3] (setting [6]) was found to be 100%.

In the case of `CO` [Methanol], on phthalyl amidase [3], the remaining activity at 1 % was found to be 100%, the remaining activity at 5 % is 90% and the remaining activity at 10 % was 69%.

Take `C[S+](C)[O-]` [DMSO, dimethyl sulfoxide]: on phthalyl amidase [3], the remaining activity at 1 % was 101%, the remaining activity at 5 % amounted to 80% and the remaining activity at 10 % stood at 71%.

On to `CC(C)(COP(=O)(O)OP(=O)(O)OC[C@H]1O[C@@H](n2cnc3c(N)ncnc32)[C@H](O)[C@@H]1OP(=O)(O)O)[C@@H](O)C(=O)NCCC(=O)NCCS` [CoASH], for which the remaining activity at 1000 µM on phthalyl amidase [3] (setting [6]) stood at 102%.

As for `O=C(O)CNC(=O)c1ccccc1C(=O)O` [PAG, phthalyl glycine], the “effect on wet weight cell mass (in words)” value with Xanthobacter agilis is given as “increased”. For the same compound, in the experiment on Xanthobacter agilis (inducer addition 1 mg/ml), the Units/g cells came to 1.04 Units/g cells and the Total units/mg protein stood at 0.35 µmol/min/mg. In the experiment with Xanthobacter agilis (inducer addition 5 mg/ml), this compound showed a Units/g cells of 9.4 Units/g cells, a Cell weight of 0.5 g/50 ml and a Total units/mg protein of 4.4 µmol/min/mg.

With `O=C(O)CN1C(=O)C(NC(=O)c2ccccc2C(=O)O)C1CCc1ccco1` (centres unmarked) [PMBL], the “effect on wet weight cell mass (in words)” value in the experiment with Xanthobacter agilis was “no effect”.

For `CCCCCCC(C(=O)O)n1cnc(NC(=O)c2ccccc2-c2nn[nH]n2)c1` (centres unmarked) [XXII], the “Relative Activity” value at phthalyl amidase [1] (setting [5]) was 0.2. At phthalyl amidase [1], the “suitability as substrate (in words)” value is listed as “Low levels of hydrolysis”.

Turning to `CCCCCCC(C(=O)O)n1cnc(NC(=O)c2cccc(C(=O)O)c2)c1` (centres unmarked) [XXIV], the “Relative Activity” value on phthalyl amidase [1] (setting [5]) amounted to 0. For the same compound, on phthalyl amidase [1], the “suitability as substrate (in words)” value is listed as “completely eliminates hydrolytic activity”.

Regarding `O=C(O)CN(CCN(CC(=O)O)CC(=O)O)CC(=O)O` [EDTA], on phthalyl amidase [3], the “effect on enzyme activity (in words)” value is recorded as “little or no effect” and the remaining activity at 1000 µM came out at 103%.

Turning to `CCCCCCC(C(=O)O)n1cnc(NC(=O)c2cccc(O)c2)c1` (centres unmarked) [XXVI], at phthalyl amidase [1] (setting [5]), the “Relative Activity” value is on record as 0.
